This is an account of results in patent US20060122267A1, “Compositions and methods for attenuating mitochondria-mediated cell injury” (priority 2003, published 2006).

In test [1] the test system is isolated adult rat cardiomyocytes. As to the kind of experiment: Cardiomyocyte model of ischemia-reperfusion injury, cell viability by Trypan blue exclusion. It counts as cell-based. The following applies: for protection of cardiomyocyte viability from ischemia-reperfusion injury: 1 hour ischemia, 30 minutes reoxygenation. As to the method: Isolated adult rat cardiomyocytes were subjected to 1 hour ischemia (anoxic, glucose free medium, pH 6.5) followed by 30 minutes reoxygenation (labeled “HR”). Cell viability was assayed by Trypan blue exclusion. […] All data are means±SEM, N>3.
Adult rat cardiomyocytes were prepared by collagenase perfusion according to standard methods (Dai, et al. (2001) supra), yielding ˜4×10^6 cells per heart, >80% rod-shaped and viable. Incubations were in a shaking water bath at 37° C., each utilizing 5×10^5 cells in 5 mL of the KH buffers described below. For the control, cells were incubated for 2 hours in oxygenated KH buffer (95/5 O2/CO2). For ischemia-reperfusion treatment, cells were subjected to 30 minutes in oxygenated KH buffer, 1 hour in “ischemic” KH buffer (95/5 N2/CO2, pH 6.5, no glucose), and 30 minutes in oxygenated KH buffer. For the ischemia-reperfusion injury and test compound group of cells, ischemia-reperfusion injury was carried out as described above with test compound present during the 30 minute equilibration prior to ischemia-reperfusion and absent during ischemia. […] At the end of each protocol, cell viability was assayed (Trypan blue), and mitochondrial function determined (measurement of ΔΨm with the fluorescent probe TMRE, respiration with an O2 electrode, and S-nitrosothiol content by chemiluminescence and biotin-switch.

For another test, the target named is T1, mitochondrial complex I (Rattus norvegicus, UniProt Q66HF1).
T1 construct: Rat heart mitochondria were isolated using differential centrifugation; from tissue; host or cells: rat heart mitochondria (male Sprague-Dawley rats)
T1 sequence (Q66HF1 24-727, one chain of several): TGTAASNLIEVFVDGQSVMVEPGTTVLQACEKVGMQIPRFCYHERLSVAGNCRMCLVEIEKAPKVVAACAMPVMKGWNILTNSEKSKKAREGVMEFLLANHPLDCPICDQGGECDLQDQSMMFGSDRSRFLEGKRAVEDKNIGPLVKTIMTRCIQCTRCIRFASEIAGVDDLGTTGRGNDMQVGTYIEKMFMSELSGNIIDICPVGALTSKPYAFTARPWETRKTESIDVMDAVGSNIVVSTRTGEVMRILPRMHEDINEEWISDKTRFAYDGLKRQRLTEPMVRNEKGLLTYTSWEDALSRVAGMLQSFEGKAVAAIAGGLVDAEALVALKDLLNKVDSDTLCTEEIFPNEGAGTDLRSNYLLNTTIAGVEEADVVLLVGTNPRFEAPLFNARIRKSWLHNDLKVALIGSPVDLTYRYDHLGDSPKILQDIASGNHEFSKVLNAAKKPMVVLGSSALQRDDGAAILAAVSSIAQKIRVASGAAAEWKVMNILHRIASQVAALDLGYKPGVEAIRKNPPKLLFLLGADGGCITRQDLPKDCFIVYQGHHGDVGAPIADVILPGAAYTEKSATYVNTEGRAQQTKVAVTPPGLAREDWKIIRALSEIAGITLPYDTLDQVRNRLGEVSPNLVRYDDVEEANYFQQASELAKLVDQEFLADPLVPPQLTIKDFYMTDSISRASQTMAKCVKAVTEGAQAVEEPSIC
Put plainly: Complex I S-nitrosation: blue-native gel isolation followed by chemiluminescent S-nitrosothiol analysis. The format is biochemical. The following applies: 100 μM treatment. The text has this: Efforts to detect S-nitrosation within mitochondrial complex I itself relied on isolating the complex using a modified blue-native gel electrophoresis method, followed by chemiluminescent S-nitrosothiol analysis. […] Chemiluminescent analysis of excised gel bands gave an S-nitrosothiol profile of the gel, with four major peaks. The first of these was in a gel segment enriched in complex I.
Assuming heart mitochondria contain ˜50 pmol complex I per mg protein (Schagger & Pfeiffer (2001) J. Biol. Chem. 276:37861-37867), it was observed that S-nitrosation plateaud at a ˜7:1 mol/mol ratio (i.e., 7 mols S-nitrosothiol per mol complex I), while maximum complex I inhibition was ˜20-25%. This apparent mis-match between the stoichiometry of S-nitrosation (7:1) and the degree of inhibition (25%) may reflect S-nitrosation of complex I on multiple subunits. […]
Chemiluminescent analysis of S-nitrosothiol content was performed on samples originating from blue-native gels, intact mitochondria and SUPEROSE™ 6 chromatography fractions, according to known methodologies (Yang, et al. (2003) Free Radic. Res. 37:1-10). […] Each sample was run in duplicate and quantified using a standard curve created with known concentrations of NaNO2.

`N[C@@H](CCC(=O)N[C@@H](CSN=O)C(=O)NCC(=O)O)C(=O)O` [S-nitrosoglutathione]: in test [1], the “concentration required to achieve levels of protection comparable to 10-20 μM S-nitroso-2-mercaptopropylglycine” value came out at 100 μM. The “protection of cardiomyocyte viability from ischemia-reperfusion injury” value in test [1] (10 μM) was “no protection”; in test [1] (100 μM), “significant protection”. The “share of total S-nitrosothiol originating from complex I” value on mitochondrial complex I is ~20%. In addition, the “S-nitrosothiol originating from complex I” value on mitochondrial complex I (per mg mitochondrial protein) was 350 pmols.
